{
  "source": "patent US20230233453A1",
  "about": "“SUXAMETHONIUM COMPOSITION AND PREFILLED SYRINGE THEREOF” (LABORATOIRE AGUETTANT, priority 2020, published 2023)",
  "key": {"[1]": {"test": "Degradation of suxamethonium depending on pH", "format": "physicochemical", "conditions": "pH 5.0 vs pH 3.5"}, "[2]": {"test": "Sensitivity of suxamethonium to oxidizing conditions", "format": "physicochemical"}},
  "data": [
    {"compound": "C[N+](C)(C)CCOC(=O)CCC(=O)OCC[N+](C)(C)C", "note": "[suxamethonium]", "values": [
      {"measurement": "degradation depending on pH", "setting": "[1]", "value": "faster at pH 5.0 than at pH 3.5"},
      {"measurement": "sensitivity to oxidizing conditions", "setting": "[2]", "value": "not sensitive to oxidizing conditions"}
    ]}
  ]
}
